From article PMC3574584 (Journal of medicinal chemistry, 2013)

Tests used:
TC-PTP = molecular target: T1, TC-PTP (Homo sapiens, UniProt P17706); assay: PTP selectivity pNPP assay, TC-PTP; assay type: biochemical, mammalian
T1 sequence (P17706 1-415): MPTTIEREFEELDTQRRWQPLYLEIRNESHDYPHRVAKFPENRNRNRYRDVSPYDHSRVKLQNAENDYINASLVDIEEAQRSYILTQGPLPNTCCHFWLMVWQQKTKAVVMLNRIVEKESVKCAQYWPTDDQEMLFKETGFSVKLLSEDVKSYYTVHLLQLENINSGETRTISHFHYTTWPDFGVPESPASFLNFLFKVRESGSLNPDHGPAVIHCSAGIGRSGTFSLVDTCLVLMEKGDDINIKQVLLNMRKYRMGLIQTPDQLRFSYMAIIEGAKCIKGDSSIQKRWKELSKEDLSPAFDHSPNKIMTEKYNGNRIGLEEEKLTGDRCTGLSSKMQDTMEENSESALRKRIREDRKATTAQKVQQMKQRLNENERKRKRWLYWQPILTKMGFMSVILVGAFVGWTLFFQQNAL

mPTPB = molecular target: T2, mPTPB (Mycobacterium tuberculosis, UniProt I6WXK4); assay type: biochemical
T2 sequence (I6WXK4 1-276): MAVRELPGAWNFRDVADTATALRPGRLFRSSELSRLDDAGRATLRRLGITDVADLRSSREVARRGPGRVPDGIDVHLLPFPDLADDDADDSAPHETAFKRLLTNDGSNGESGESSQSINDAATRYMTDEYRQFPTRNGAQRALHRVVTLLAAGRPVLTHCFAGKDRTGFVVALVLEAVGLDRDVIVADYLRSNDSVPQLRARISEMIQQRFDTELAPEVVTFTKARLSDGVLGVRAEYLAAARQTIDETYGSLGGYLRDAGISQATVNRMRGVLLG

## O=C(O)c1cc2c(C#Cc3ccc(F)cc3F)c(-c3ccccc3)oc2cc1O [Compound 4e, 3-((2,4-difluorophenyl)ethynyl)-6-hydroxy-2-phenylbenzofuran-5-carboxylic acid]
TC-PTP
  IC50: 9 ± 0.5 µM

## O=C(O)c1cc2c(C#Cc3cc(F)cc(F)c3)c(-c3ccccc3)oc2cc1O [Compound 4f, 3-((3,5-difluorophenyl)ethynyl)-6-hydroxy-2-phenylbenzofuran-5-carboxylic acid]
mPTPB
  decrease in IC50 for mPTPB compared to 4b: 3.3 fold

## O=C(O)c1cc2c(C#Cc3cccc(C(F)(F)F)c3)c(-c3ccccc3)oc2cc1O [Compound 4g, 6-hydroxy-2-phenyl-3-((3-(trifluoromethyl)phenyl)ethynyl)benzofuran-5-carboxylic acid]
mPTPB
  mode of mPTPB inhibition: reversible and noncompetitive
